Test [1] can be described thus: (§1) Antagonist activity at GABAA receptor in Wistar rat neuronal cells assessed inhibition of GABA-evoked response by patch-clamp technique. Type of test: functional, cell-based.
In test [2] the test system is neuronal. The test is described as §1. Type of test: functional, cell-based.

For orientation: EC50 means the concentration that produces a half-maximal response. The low end stands for greater potency, the high end for weaker potency.

Regarding `CCC[C@@H](O)CC/C=C/C=C/C#CC#C/C=C/CO` [OENANTHOTOXIN], the half-maximal effective concentration (EC50) in test [1] is 1390 nM. In addition, the Activity result in test [2] was “Dose-dependent effect”. `CCC[C@@H](O)CC/C=C/C=C/C#CC#CCCCO` [DIHYDROOENANTHOTOXIN]: in test [1], the response was half-maximal at 835 nM (EC50).

The values above are taken from ChEMBL document CHEMBL1152341, “Polyacetylenes from sardinian Oenanthe fistulosa: a molecular clue to risus sardonicus” (J Nat Prod, 2009).
